# System: Smh1
# Format: biochemical, Legionella pneumophila
# Conditions: 50 µM TSA, 30 min preincubation; enzyme 156.25 ng/ml; inhibitor
smiles,measurement,value
CC(/C=C/C(=O)NO)=C\[C@@H](C)C(=O)c1ccc(N(C)C)cc1 [Trichostatin A],HDAC-Glo I/II luminescence assay,TSA significantly reduced Smh1 HDAC activity in comparison to Smh1 alone

# From publication PMC9704406 (Virulence, 2022)
